What was measured:
N-type calcium channel [1] = target: T1, N-type calcium channel (Homo sapiens, UniProt Q00975); experiment: Activity of inhibiting N-type calcium channel (fluorescent dye method), IMR-32 cells; type: cell-based; details: fluorescent dye (fura-2) method, 60 mM KCl stimulation, 1 μM Nifedipine present; for IC50: read-out: N-type inhibition pIC50 (converted)
T1 construct: Human neuroblastoma cell IMR-32 was obtained from ATCC (American Type Culture Collection); host or cells: IMR-32 human neuroblastoma cells, differentiated with dibutyl cAMP and bromodeoxyuridine
Protocol: Activity of Inhibiting the Action of N-type Calcium Channel (Fluorescent Dye Method):
Human neuroblastoma cell IMR-32 was obtained from ATCC (American Type Culture Collection). The culture medium was prepared by adding 2 mM of L-glutamine (GIBCO), 1 mM of sodium pyruvate of pH 6.5 (GIBCO), a liquid antibiotic/antimicotic mixture (GIBCO) and 10% fetal calf serum (Cell Culture Technologies) to an Eagle minimum essential medium (GIBCO) free of Phenol Red and containing earle's salts supplyment. 3 ml of 1×10^5/ml IMR-32 cells was spread on a glass dish (Iwaki Glass Co., Ltd.) having a bottom diameter of 35 mm, which had been treated with poly-D-lysine (SIGMA) and also with collagen (COLLAGEN VITROGEN 100; a product of Collagen Co.). After the culture for 2 days, 1 mM (final concentration) of dibutyl cAMP and 2.5 μM of bromodeoxyuridine (SIGMA) were added to the culture mixture. After the culture for additional 10 to 14 days, the cells were used for the activity determination. The IMR-32 cell medium prepared as described above was replaced with Eagle minimum essential medium (GIBCO) containing 1 ml of 10 μM fura-2/AM (Dojin Kagaku Co.) and earle's salts supplyment but free of Phenol Red, and the incubation was conducted at 25° C. for one hour.
Then the medium was replaced with fura-2/AM-free Eagle minimum essential medium (GIBCO) free of Phenol Red and containing earle's salts supplyment. After conducting the incubation at 37° C. for one hour, the medium was replaced with a recording medium (comprising 20 mM of HEPES-KOH, 115 mM of NaCl, 5.4 mM of KCl, 0.8 mM of MgCl2, 1.8 mM of CaCl2 and 13.8 mM of D-glucose). The N-calcium channel inhibition activity was determined and analyzed with a fluorescent microscope (Nikon corporation) and an image analysis apparatus ARGUS 50 (Hamamatsu Photonics). Namely, a recording medium (comprising 20 mM of HEPES-KOH, 115 mM of NaCl, 5.4 mM of KCl, 0.8 mM of MgCl2, 1.8 mM of CaCl2 and 13.8 mM of D-glucose) containing 1 μM of Nifedipine was applied to the cells and refluxed by Y-tube method for 2 minutes. Then, a 60 mM potassium chloride-containing stimulating agent was rapidly given. Thereafter, 60 mM potassium chloride-containing stimulating agents which further contained 0.1, 1 or 10 μM of a test compound were rapidly and successively administered by Y-tube method to determine the channel inhibition activity. Finally, 60 mM potassium chloride-containing stimulating agent further containing 1 μM of omega conotoxin (Peptide Kenkyu-sho) was rapidly given by Y-tube method to realize 100% inhibition of the N-type calcium channel.

L-type calcium channel = target: T2, L-type calcium channel (Rattus norvegicus, UniProt P22002); experiment: Activity of inhibiting L-type calcium channel: relaxation of KCl contraction of isolated rat thoracic aorta; parameters: species or system Wistar rats; details: for IC50: KCl contraction of isolated rat thoracic aorta, read-out: L-type inhibition IC50
T2 construct: The slips of thoracic aorta extracted from Wistar rats were used; from tissue; host or cells: isolated thoracic aorta rings of Wistar rats, endothelium removed
Protocol: Activity of Inhibiting the Action of L-type Calcium Channel
The activity of the dihydropyridine derivatives of the present invention to inhibit the action of L-type calcium channel was determined by the following method wherein the relaxation reaction on the KCl contraction of isolated thoracic aorta samples of rats was utilized.
1) Preparation of Isolated Thoracic Aorta Samples of Rats
The slips of thoracic aorta extracted from Wistar rats were used. Blood vessels were cut to form rings having a width of about 3 mm. The endothelial cells of the blood vessels were mechanically removed. The samples were suspended in a strain gauge in Tyrode solution (comprising 158.3 mM of NaCl, 4.0 mM of KCl, […] of MgCl2, 0.42 mM of NaH2PO4, 10 mM of NaHCO3, 2 mM of CaCl2 and 5 mM of glucose) in which a gaseous mixture of O2 (95%) and CO2 (5%) was introduced, to apply a stationary tension of 2 g. The tension of the blood vessel was recorded with a multipen recorder (Rikadenki Kogyo Co., Ltd.) by using a transducer after the amplification with a tension amplifier (EF-601G; Nihon Kohden Corporation). The experiments were conducted at 37° C.
2) Determination of Relaxation Reaction Against KCl contraction
After the tension was stabilized, the nutrient solution in the sample tank was replaced with High K^+ Tyrode solution (comprising 112.3 mM of NaCl, 50 mM of KCl, 1.05 mM of MgCl2, 0.42 mM of NaH2PO4, 10 mM of NaHCO3, 2 mM of CaCl2 and 5 mM of glucose) to cause the contraction reaction. 30 minutes after, the solution in the sample tank was replaced with normal Tyrode solution. Then, the solution in the sample tank was again replaced with High K^+ Tyrode solution and the contraction reaction was observed. After the maximum contraction reaction occurred, a test compound was cumulatively added to realize concentrations of 10^−9, 10^−8, 10^−7 and 10^−6 M at intervals of 90 minutes. The inhibition rate of the test compound on the maximum contraction reaction was employed as the index of the activity of inhibiting the action of L-type calcium channel.

N-type calcium channel [2] = target: T3, N-type calcium channel (Rattus norvegicus, UniProt Q02294); experiment: Inhibition activity of N-type calcium channel (patch clamp method), rat maxillary sympathetic ganglion cells; type: cell-based, Wistar rats; details: 0.1 uM compound, whole cell voltage clamp, barium current
T3 construct: from tissue; host or cells: acutely dissociated sympathetic ganglion cells of Wistar rats (2 to 4 weeks old)
Protocol: Inhibition Activity of N-type Calcium Channel (Patch Clamp Method)
1) Preparation of Cells of Maxillary Sympathetic Ganglions of Rats
The cervix of each of Wistar rats (2 to 4 weeks old) was opened to expose the maxillary ganglions under anesthesia with pentobarbital. A pair of the ganglions were removed and immediately washed with Ca^2+-free Tyrode solution cooled with ice. Each ganglion was cut into 3 or 4 pieces and kept in the Ca^2+-free Tyrode solution for 15 minutes. Then, these pieces were treated with papain [Washington Biochemicals (lot#35J557); 20 U/ml] for 20 minutes and then with a mixture of 2-type collagenase [Washington Biochemicals (CLS2); 5900 U/ml]and dispase [Calbiochem (lot#1312973); 16 mg/ml] for one hour. After enzymatic treatment, the ganglion cells were mechanically isolated by pipetting. The isolated ganglion cells were used for the experiments within 6 hours.
2) Determination of Calcium Electric Current
The calcium electric current was determined by the whole cell voltage clamp method under the fixed membrane potential. The pipette electrode was pulled from glass tube (inner diameter: 1.5 mm; Narishige) in two stage of a vertical pipette puller (PB-7; Narishige). The ionic current was amplified with a patch amplifier (CEZ-2300; Nihon Kohden Corporation). The noises were cut at 10 kHz (E-3201B, NF Electronic Instrument) and then the ionic current was monitored on a storage oscilloscope (DS-9121, Iwatsu) and, at the same time, recorded with a DAT data recorder (RD-120TE, TEAC). Then it was passed through a 1 kHz filter and recorded in a computer (Compaq DeskPro) with pCLAMP software (Axon Instrument) of 3 kHz. All the experiments were performed at room temperature (25±2° C.). In the measurement of the current through the calcium channel, 10 mM barium (composition of the solution: shown below) was used in place of calcium as the charge carrier. The transmission of barium through the calcium channel was higher than that of calcium in the sympathetic ganglion cells, and the calcium-dependent channel inactivation was slight when barium was used.
The test compounds were rapidly administered by Y-tube method by Murase et al. [Brain Res. 525, 84 (1990)]. Each compound was dissolved in DMSO preparing 10 mM mother solution. At the highest drug concentration used, the vehicle (0.1%) had no significant effect on the calcium electric current.
Composition of Normal Tyrode's solution: NaCl; 143, KCl; 4, MgCl2; 0.5; CaCl2; 1.8, glucose; 5.5, NaH2PO4; 0.33, HEPES; 5 (Mm). The pH was adjusted to 7.4 with tris-OH.
Composition of Ca-free Tyrode's solution: the same as that of the Normal Tyrode's solution except that it was free of CaCl2.
External solution for the determination of calcium electric current (mM): TEACl; 144, CsCl;. […]

[3] = 10^−7 M compound, inhibition rate on maximum KCl contraction of rat thoracic aorta

T1 sequence (Q00975 whole entry): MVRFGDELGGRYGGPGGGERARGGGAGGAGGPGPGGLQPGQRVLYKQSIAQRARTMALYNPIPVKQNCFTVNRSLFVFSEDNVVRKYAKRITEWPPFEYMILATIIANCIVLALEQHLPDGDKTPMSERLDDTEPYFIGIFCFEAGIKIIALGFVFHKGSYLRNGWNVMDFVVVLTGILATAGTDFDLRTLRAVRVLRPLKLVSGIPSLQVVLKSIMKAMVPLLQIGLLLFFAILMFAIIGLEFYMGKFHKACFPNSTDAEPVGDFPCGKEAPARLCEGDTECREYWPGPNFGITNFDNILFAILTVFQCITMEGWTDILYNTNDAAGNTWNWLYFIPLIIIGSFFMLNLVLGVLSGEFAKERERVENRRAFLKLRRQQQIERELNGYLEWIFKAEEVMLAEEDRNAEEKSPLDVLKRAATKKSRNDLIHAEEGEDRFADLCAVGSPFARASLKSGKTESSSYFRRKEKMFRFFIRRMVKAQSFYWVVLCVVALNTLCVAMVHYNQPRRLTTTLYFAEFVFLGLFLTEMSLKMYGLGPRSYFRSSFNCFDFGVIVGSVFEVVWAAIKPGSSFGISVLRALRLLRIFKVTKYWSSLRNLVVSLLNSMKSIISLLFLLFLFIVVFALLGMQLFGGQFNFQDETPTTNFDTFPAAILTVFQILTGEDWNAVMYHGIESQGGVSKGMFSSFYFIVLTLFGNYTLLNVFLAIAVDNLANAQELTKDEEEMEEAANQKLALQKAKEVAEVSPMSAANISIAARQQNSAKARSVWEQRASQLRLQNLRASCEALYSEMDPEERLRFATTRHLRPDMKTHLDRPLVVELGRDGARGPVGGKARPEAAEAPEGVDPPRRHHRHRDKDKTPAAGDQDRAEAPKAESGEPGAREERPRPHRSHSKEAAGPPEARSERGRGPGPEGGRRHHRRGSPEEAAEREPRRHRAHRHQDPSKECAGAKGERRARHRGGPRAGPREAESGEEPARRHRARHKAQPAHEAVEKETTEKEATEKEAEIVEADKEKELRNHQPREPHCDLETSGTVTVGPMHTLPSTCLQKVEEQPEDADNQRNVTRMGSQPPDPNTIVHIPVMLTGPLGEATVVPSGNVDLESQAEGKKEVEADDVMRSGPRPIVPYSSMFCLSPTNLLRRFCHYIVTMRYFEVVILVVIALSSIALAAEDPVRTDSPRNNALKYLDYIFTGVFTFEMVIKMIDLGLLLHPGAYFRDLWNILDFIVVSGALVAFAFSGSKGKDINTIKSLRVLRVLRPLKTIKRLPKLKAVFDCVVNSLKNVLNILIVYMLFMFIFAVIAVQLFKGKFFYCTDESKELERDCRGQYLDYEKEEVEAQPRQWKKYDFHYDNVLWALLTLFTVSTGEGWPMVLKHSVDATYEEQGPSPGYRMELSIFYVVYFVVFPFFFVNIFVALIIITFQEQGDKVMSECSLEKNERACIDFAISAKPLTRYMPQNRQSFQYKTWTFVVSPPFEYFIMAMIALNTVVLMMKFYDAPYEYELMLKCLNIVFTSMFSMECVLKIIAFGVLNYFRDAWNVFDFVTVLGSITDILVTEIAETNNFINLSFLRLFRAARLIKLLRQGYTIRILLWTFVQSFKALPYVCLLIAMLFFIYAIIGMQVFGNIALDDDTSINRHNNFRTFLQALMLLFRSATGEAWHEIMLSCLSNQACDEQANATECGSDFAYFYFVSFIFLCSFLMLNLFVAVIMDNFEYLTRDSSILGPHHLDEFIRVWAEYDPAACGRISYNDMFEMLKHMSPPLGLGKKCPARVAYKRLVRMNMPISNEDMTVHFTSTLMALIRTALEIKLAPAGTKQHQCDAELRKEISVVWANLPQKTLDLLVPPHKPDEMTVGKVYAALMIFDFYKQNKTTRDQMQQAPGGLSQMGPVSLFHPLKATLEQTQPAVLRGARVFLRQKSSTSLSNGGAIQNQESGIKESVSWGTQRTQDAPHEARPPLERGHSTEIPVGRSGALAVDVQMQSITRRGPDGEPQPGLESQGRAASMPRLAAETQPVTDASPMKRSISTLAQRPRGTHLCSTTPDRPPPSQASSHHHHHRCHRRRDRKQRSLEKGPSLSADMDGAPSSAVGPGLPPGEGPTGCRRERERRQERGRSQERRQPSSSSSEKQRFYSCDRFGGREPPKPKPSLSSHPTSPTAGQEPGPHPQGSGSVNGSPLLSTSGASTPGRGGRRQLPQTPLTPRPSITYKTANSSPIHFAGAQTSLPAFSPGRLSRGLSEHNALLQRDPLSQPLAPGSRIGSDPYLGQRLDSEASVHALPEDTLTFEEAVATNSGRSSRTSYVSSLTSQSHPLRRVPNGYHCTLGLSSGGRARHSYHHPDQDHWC
T1 sequence (P54289 25-956 partner limits assumed): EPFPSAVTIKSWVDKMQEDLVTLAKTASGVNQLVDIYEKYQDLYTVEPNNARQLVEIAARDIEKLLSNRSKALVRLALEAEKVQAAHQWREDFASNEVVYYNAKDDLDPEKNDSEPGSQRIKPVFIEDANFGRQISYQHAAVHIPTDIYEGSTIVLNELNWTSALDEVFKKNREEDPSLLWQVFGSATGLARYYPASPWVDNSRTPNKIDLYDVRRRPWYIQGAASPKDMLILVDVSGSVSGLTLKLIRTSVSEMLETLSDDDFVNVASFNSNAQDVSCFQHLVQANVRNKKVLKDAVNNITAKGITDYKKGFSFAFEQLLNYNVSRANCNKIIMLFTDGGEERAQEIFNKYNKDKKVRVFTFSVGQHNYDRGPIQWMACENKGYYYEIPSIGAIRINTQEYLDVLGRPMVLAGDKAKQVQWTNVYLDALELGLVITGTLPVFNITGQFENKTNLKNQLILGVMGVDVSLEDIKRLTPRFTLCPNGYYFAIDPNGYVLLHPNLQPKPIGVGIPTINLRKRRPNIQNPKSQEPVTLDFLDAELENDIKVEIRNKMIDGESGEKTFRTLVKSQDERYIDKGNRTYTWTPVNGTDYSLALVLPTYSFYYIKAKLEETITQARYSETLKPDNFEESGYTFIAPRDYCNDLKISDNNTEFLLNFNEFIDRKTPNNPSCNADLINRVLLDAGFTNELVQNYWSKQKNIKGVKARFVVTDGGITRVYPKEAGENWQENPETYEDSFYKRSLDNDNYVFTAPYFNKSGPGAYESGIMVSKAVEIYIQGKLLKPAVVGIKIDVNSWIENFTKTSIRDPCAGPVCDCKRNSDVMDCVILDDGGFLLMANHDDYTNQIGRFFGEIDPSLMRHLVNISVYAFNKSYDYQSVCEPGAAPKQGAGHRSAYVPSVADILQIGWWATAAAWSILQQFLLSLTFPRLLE
T1 sequence (P54289 957-1103 partner limits assumed): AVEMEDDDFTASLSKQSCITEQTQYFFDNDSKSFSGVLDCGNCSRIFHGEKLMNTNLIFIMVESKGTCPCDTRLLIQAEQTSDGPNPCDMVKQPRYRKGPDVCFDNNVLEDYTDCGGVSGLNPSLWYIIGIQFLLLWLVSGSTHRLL
T1 sequence (P54284 whole entry partner): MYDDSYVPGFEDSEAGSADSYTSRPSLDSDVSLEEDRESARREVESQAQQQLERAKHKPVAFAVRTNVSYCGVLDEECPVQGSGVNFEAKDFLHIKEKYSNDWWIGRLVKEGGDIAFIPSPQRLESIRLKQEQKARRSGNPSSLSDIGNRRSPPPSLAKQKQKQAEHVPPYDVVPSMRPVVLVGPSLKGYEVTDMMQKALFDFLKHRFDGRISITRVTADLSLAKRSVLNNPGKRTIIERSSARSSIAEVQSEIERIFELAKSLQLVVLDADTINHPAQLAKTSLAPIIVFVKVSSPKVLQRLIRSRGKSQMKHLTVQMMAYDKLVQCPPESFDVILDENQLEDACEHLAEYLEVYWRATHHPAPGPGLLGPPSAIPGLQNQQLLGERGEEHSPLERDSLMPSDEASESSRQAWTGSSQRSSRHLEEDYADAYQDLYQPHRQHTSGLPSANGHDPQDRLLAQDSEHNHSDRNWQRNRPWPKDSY

Row | Compound | IC50 (N-type calcium channel [1]) [µM] | inhibition at 0.1 µM (L-type calcium channel; [3]) [%] | IC50 (L-type calcium channel) [µM] | inhibition at 0.1 µM (N-type calcium channel [2]) [%] | N-type inhibition pIC50 (N-type calcium channel [1]) | L-type inhibition 10^−7 M (%) (L-type calcium channel; [3]) | N-type inhibition 0.1 uM (%) (N-type calcium channel [2])
1 | CC1=C(C(=O)O)C(c2cccc(Cl)c2)C(C(=O)NCC=Cc2ccccc2)=C(C)N1 (stereo not shown) [Example 1, 4-(3-chlorophenyl)-2,6-dimethyl-5-(3-phenyl-2-propene-1-ylcarbamoyl)-1,4-dihydropyridine-3-carboxylic acid] | 5.01 | 19 | > 1 | 35 |  |  | 
2 | CC1=C(C(=O)O)C(c2cccc([N+](=O)[O-])c2)C(C(=O)NC/C=C/c2ccccc2)=C(C)N1 (stereo not shown) [Example 4, 2,6-dimethyl-4-(3-nitrophenyl)-5-(3-phenyl-2-propene-1-ylcarbamoyl)-1,4-dihydropyridine-3-carboxylc acid] | 1.58 | -7 | 0.914 | 16 |  |  | 
3 | CC1=C(C(=O)O)C(c2cccc(C#N)c2)C(C(=O)NCC=Cc2ccccc2)=C(C)N1 (stereo not shown) [Example 10, 4-(3-cyanophenyl)-2,6-dimethyl-5-(3-phenyl-2-propene-1-ylcarbamoyl)-1,4-dihydropyridine-3-carboxylic acid] | 2.51 |  |  |  |  |  | 
4 | (3-phenyl-2-propene-1-yl) 4-(3-chlorophenyl)-5-cyano-2,6-dimethyl-1,4-dihydropyridine-3-carboxylate [Example 12] |  |  | 0.22 |  | 5.9 | 21 | 24

Other lines, results leading:

Row | IC50 (N-type calcium channel [1]) [µM] | inhibition at 0.1 µM (L-type calcium channel; [3]) [%] | IC50 (L-type calcium channel) [µM] | inhibition at 0.1 µM (N-type calcium channel [2]) [%] | N-type inhibition pIC50 (N-type calcium channel [1]) | L-type inhibition 10^−7 M (%) (L-type calcium channel; [3]) | N-type inhibition 0.1 uM (%) (N-type calcium channel [2]) | Compound
5 | 1.58 | -6 | > 1 | 16 |  |  |  | CC1=C(C(=O)O)C(c2ccc([N+](=O)[O-])cc2)C(C(=O)NCC=Cc2ccccc2)=C(C)N1 (stereo not shown) [Example 17, 2,6-dimethyl-4-(4-nitrophenyl)-5-[(3-phenyl-2-propene-1-yl)carbamoyl]-1,4-dihydropyridine-3-carboxylic acid]
6 | 0.794 |  |  |  |  |  |  | CC1=C(C(=O)O)C(c2cccc(Cl)c2)C(C(=O)NCC(=O)Nc2ccccc2)=C(C)N1 (stereo not shown) [Example 21, 4-(3-chlorophenyl)-2,6-dimethyl-5-(phenylcarbamoylmethylcarbamoyl)-1,4-dihydropyridine-3-carboxylic acid]
7 | 0.631 |  |  |  |  |  |  | CC1=C(C(=O)O)C(c2cccc(Cl)c2)C(C(=O)NCCC(c2ccccc2)c2ccccc2)=C(C)N1 (stereo not shown) [Example 34, 4-(3-chlorophenyl)-2,6-dimethyl-5-(3,3-diphenylpropylcarbamoyl)-1,4-dihydropyridine-3-carboxylic acid]

From patent US6350762B1, “Dihydropyridine derivative” (Ajinomoto Co., Inc., priority 1997, dated 2002)
